According to patent US20230357310A1, “Saponin derivatives with improved therapeutic window” (priority 2019, published 2023):
Like-named read-outs stand apart in the source and are kept apart here.

Experiments:
HeLa (EGFR+) cells = conditions: saponin as single compound
Protocol: To extend this test, saponins from other sources were analyzed. A saponin purified from a root extract of Gypsophila elegans M. Bieb. […] FIG. 63C).

A431 (EGFR++) cells = assay: Cell viability, saponin derivative with or without […] EGFdianthin; conditions: A431, saponin as single compound
[1] = system: EGFR expressing cells (HeLa); assay: cells; conditions: for endosomal escape enhancing activity (enhancement of cytotoxicity of ADC / effector molecules): summary statement in the description; for IC50: Homo sapiens, HeLa, read-out: IC50 endosomal escape enhancing activity, in HeLa or A431, + 5 pM EGF-dianthin, summary range
[2] = Critical micellar concentration (ANS fluorescence); type: physicochemical; conditions: for CMC compared with native (underivatised) saponin: comparison in words
Protocol: The critical micellar concentration (CMC) of saponins derived from Saponaria officinalis (SO) (Table A7) and derived from Quillaja saponaria (QS) (Table A8, and Table A9) was determined by the method of DeVendittis et al. (A fluorimetric method for the estimation of the critical micelle concentration of surfactants, Analytical Biochemistry, Volume 115, Issue 2, August 1981, Pages 278-286) as follows:
The emission spectrum of 8-Anilinonaphthalene-1-sulfonic acid (ANS) in either purified water (MQ) or PBS (Dulbecco's PBS+/+) was determined at dry weight concentrations of saponins ranging from 1 to 1400 μM to cover the range below and above the CMC. Above the CMC, the fluorescence yield of ANS increases and the wavelength of maximum emission decreases due to portioning of the fluorescent dye into micelles. Fluorescence yields were recorded on a Fluoroskan Ascent FL (Thermo Scientific) at an excitation wavelength of 355 nm, and an emission wavelength of 460 nm. 6 μg at a concentration of 75.86 μM of ANS were used per sample and measurement.

[3] = system: EGFR expressing cells (A431); assay: Cell viability assay (MTS): saponin titrated on fixed 10 pM targeted toxin; type: cell-based; conditions: without targeted toxin
HeLa cells [4] = assay: Pilot cell viability bioassay, saponin + 1.5 pM dianthin-EGF, 72 h; type: cell-based; conditions: 10 microgram/ml saponin + […] dianthin-EGF
Protocol: HeLa cells were incubated for 72 h with the following constructs and cell viability before and after the 72 h-incubation was assessed. In the experiments, cells were exposed to 1.5 pM dianthin-EGF conjugate. A negative control were cells incubated with buffer vehicle and 10 microgram/ml saponin, without dianthin-EGF. Cell viability was set to 100% for the control in which both saponin and EGF-dianthin were omitted. […] Cell viability after 72 h was essentially 0%. For the chemically modified saponin variants, 10 microgram/ml saponin was tested in combination with 1.5 pM dianthin-EGF.

A2058 (EGFR−) cells = assay: Cell viability, saponin derivative with or without […] EGFdianthin; conditions: A2058, saponin as single compound
human red blood cells = assay: cells; conditions: for hemolytic activity compared with unmodified saponin: comparison in words
Protocol: Red blood cells (RBCs) were isolated from a buffy coat using a Ficoll gradient. The obtained RBC pellet (˜4-5 ml) was washed 2× with 50 ml DPBS (without Ca^2+/Mg^2+, PAN-Biotech GmbH). Cells were pelleted by centrifugation for 10 min, 800×g at RT. RBC were counted and resuspended at 500.000.000 c/ml in DPBS (without Ca^2+/Mg^2+), based on total cell count.
Saponin dilutions were prepared in DPBS (with Ca^2+/Mg^2+, PAN-Biotech GmbH), at 1.11×final strength. For positive lysis control a 0.02% Triton-X100 solution was prepared in DPBS^+/+. Of all compound solutions 135 μl was dispensed/well in a 96 well V-bottom plate. To this 15 μl RBC suspension was added and mixed shortly (10 sec-600 rpm). The plate was incubated 30 min at RT, with gentle agitation. Afterwards the plate was spun for 10 min at 800×g to pellet the RBC and 100-120 μl supernatant was transferred to a standard 96 wp (96 well-plate).

HeLa cells [5] = assay: cells; conditions: for IC50: Homo sapiens, HeLa; for cytotoxicity compared with unmodified saponin: comparison in words
HSP27 mRNA in A431 cells = assay: HSP27 mRNA gene silencing analysis; type: cell-based; conditions: A431, without oligonucleotide
From the text: (§1) RNA from cells was isolated and analysed according to standard protocols (Biorad). qPCR primers that were used are indicated in Table A10.

[6] = system: HSP27 mRNA in SK-BR-3 cells; assay: HSP27 mRNA gene silencing analysis; type: cell-based; conditions: with and without SO1861-Ald-EMCH, SK-BR-3 (FIG. 58)
From the text: as §1

For `CC(=O)OC1C(C)OC(OC2C(C)OC(OC(=O)C34CCC(C)(C)CC3C3=CCC5C6(C)CCC(OC7OC(C(=O)O)C(O)C(OC8OCC(O)C(O)C8O)C7OC7OC(CO)C(O)C(O)C7O)C(C)(C=NNC(=O)CCOCCOCCOCCOCCN=[N+]=[N-])C6CCC5(C)C3(C)CC4O)C(OC3OC(C)C(OC4OCC(O)C(OC5OC(CO)C(O)C(O)C5O)C4O)C(O)C3O)C2O)C(O)C1OC1OCC(O)C(O)C1O` (stereo not shown), the “general toxicity in absence of EGFdianthin” value (“general toxicity in absence” for short) (HeLa (EGFR+) cells) was “above 10.000 nM” and the “general toxicity in absence” value (A431 (EGFR++) cells) was “above 10.000 nM”.

In the case of `CC(=O)OC1C(C)OC(OC2C(C)OC(OC(=O)[C@]34CCC(C)(C)CC3C3=CCC5[C@@]6(C)CC[C@H](OC7OC(C(=O)O)C(O)C(OC8OCC(O)C(O)C8O)C7OC7OC(CO)C(O)C(O)C7O)[C@@](C)(C=O)C6CC[C@@]5(C)[C@]3(C)C[C@H]4O)C(OC3OC(C)C(OC4OCC(O)C(OC5OCC(O)C(O)C5O)C4O)C(O)C3O)C2O)C(O)C1OC(C)=O` (stereo partly shown) [GE1741, reference compound], the “general toxicity in absence” value (HeLa (EGFR+) cells) is reported as 5.000 nM.

With `CC(=O)OC1C(C)OC(OC2C(C)OC(OC(=O)[C@]34CCC(C)(C)CC3C3=CCC5[C@@]6(C)CC[C@H](OC7OC(C(=O)O)C(O)C(OC8OCC(O)C(O)C8O)C7OC7OC(CO)C(O)C(O)C7O)[C@@](C)(CO)C6CC[C@@]5(C)[C@]3(C)C[C@H]4O)C(OC3OC(C)C(OC4OCC(O)C(OC5OC(CO)C(O)C(O)C5O)C4O)C(O)C3O)C2O)C(O)C1OC1OCC(O)C(O)C1O` (stereo partly shown) [Molecule 6] the “endosomal escape enhancing activity (enhancement of cytotoxicity of ADC / effector molecules)” value [1] was “have the capacity to enhance the cytotoxic effect” and the “CMC compared with native (underivatised) saponin” value (from here on “CMC compared with native”) [2] was “increased CMC”.

In the case of `CC1OC(OC2C(C)OC(OC(=O)[C@]34CCC(C)(C)CC3C3=CCC5[C@@]6(C)CC[C@H](OC7OC(C(=O)O)C(O)C(OC8OCC(O)C(O)C8O)C7OC7OC(CO)C(O)C(O)C7O)[C@@](C)(C=O)C6CC[C@@]5(C)[C@]3(C)C[C@H]4O)C(OC3OC(C)C(OC4OCC(O)C(OC5OC(CO)C(O)C(O)C5O)C4O)C(O)C3O)C2O)C(O)C(OC2OCC(O)C(O)C2O)C1O` (stereo partly shown) [Molecule 8], the “endosomal escape enhancing activity (enhancement of cytotoxicity of ADC / effector molecules)” value [1] is reported as “display activity” and the “CMC compared with native” value [2] is reported as “increased CMC”.

For `CC1OC(OC2C(C)OC(OC(=O)[C@]34CCC(C)(C)CC3C3=CCC5[C@@]6(C)CC[C@H](OC7OC(C(=O)O)C(O)C(OC8OCC(O)C(O)C8O)C7OC7OC(CO)C(O)C(O)C7O)[C@@](C)(CO)C6CC[C@@]5(C)[C@]3(C)C[C@H]4O)C(OC3OC(C)C(OC4OCC(O)C(OC5OC(CO)C(O)C(O)C5O)C4O)C(O)C3O)C2O)C(O)C(OC2OCC(O)C(O)C2O)C1O` (stereo partly shown) [Molecule 10], the “endosomal escape enhancing activity (enhancement of cytotoxicity of ADC / effector molecules)” value [1] was “have the capacity to enhance the cytotoxic effect” and the “CMC compared with native” value [2] was “increased CMC”.

In the case of `CC1OC(OC2C(C)OC(OC(=O)C34CCC(C)(C)CC3C3=CCC5C6(C)CCC(OC7OC(C(=O)O)C(O)C(OC8OCC(O)C(O)C8O)C7OC7OC(CO)C(O)C(O)C7O)C(C)(C=NNC(=O)CCCCCN7C(=O)C=CC7=O)C6CCC5(C)C3(C)CC4O)C(OC3OC(C)C(OC4OCC(O)C(OC5OC(CO)C(O)C(O)C5O)C4O)C(O)C3O)C2O)C(O)C(OC2OCC(O)C(O)C2O)C1O` (stereo not shown) [Molecule 15], the “endosomal escape enhancing activity (enhancement of cytotoxicity of ADC / effector molecules)” value [1] is reported as “have the capacity to enhance the cytotoxic effect” and the “CMC compared with native” value [2] is reported as “increased CMC”.

For `CC(=O)OC1C(C)OC(OC2C(C)OC(OC(=O)[C@]34CCC(C)(C)CC3C3=CCC5[C@@]6(C)CC[C@H](OC7OC(C(=O)NCCN8C(=O)C=CC8=O)C(O)C(OC8OCC(O)C(O)C8O)C7OC7OC(CO)C(O)C(O)C7O)[C@@](C)(CO)C6CC[C@@]5(C)[C@]3(C)C[C@H]4O)C(OC3OC(C)C(OC4OCC(O)C(OC5OC(CO)C(O)C(O)C5O)C4O)C(O)C3O)C2O)C(O)C1OC1OCC(O)C(O)C1O` (stereo partly shown) [Molecule 20], the “endosomal escape enhancing activity (enhancement of cytotoxicity of ADC / effector molecules)” value [1] was “have the capacity to enhance the cytotoxic effect”.

With `CC(=O)OC1C(C)OC(OC2C(C)OC(OC(=O)[C@]34CCC(C)(C)CC3C3=CCC5[C@@]6(C)CC[C@H](OC7OC(C(=O)O)C(O)C(OC8OCC(O)C(O)C8O)C7OC7OC(CO)C(O)C(O)C7O)[C@@](C)(C=O)C6CC[C@@]5(C)[C@]3(C)C[C@H]4O)C(OC3OC(C)C(OC4OCC(O)C(OC5OC(CO)C(O)C(O)C5O)C4O)C(O)C3O)C2O)C(O)C1OC1OCC(O)C(O)C1O` (stereo partly shown) [SO1861, reference compound] the “cell killing activity of saponin alone” value [3] was “no cell killing activity”, the “general toxicity in absence” value (HeLa (EGFR+) cells) was “strong cell viability reduction” and the “Cell viability after 72 h” value (HeLa cells [4]) was about 0%. For the same compound, the “general toxicity in absence” value (A431 (EGFR++) cells) was “strong cell viability reduction”, the “general toxicity in absence” value (A2058 (EGFR−) cells) was “strong cell viability reduction” and the CMC ([2]; PBS (Tables A7, A9)) was 185 µM.

In the case of `CC(=O)OC1C(C)OC(OC2C(C)OC(OC(=O)[C@]34CCC(C)(C)CC3C3=CCC5[C@@]6(C)CC[C@H](OC7OC(C(=O)O)C(O)C(OC8OCC(O)C(O)C8O)C7OC7OC(CO)C(O)C(O)C7O)[C@@](C)(/C=N/NC(=O)CCCCCN7C(=O)C[C@H](SCCO)C7=O)C6CC[C@@]5(C)[C@]3(C)C[C@H]4O)C(OC3OC(C)C(OC4OCC(O)C(OC5OC(CO)C(O)C(O)C5O)C4O)C(O)C3O)C2O)C(O)C1OC1OCC(O)C(O)C1O` (stereo partly shown) [SO1861-Ald-EMCH-blocked], the IC50 (human red blood cells; Homo sapiens, Erythrocyte, read-out: IC50 nM (hemolysis)) is reported as 300000 nM, the IC50 (human red blood cells; Homo sapiens, Erythrocyte, read-out: IC50 hemolytic activity) is reported as 300000 nM and the “hemolytic activity compared with unmodified saponin” value (human red blood cells) is reported as “less hemolytically active”. It also gave an IC50 (human red blood cells; read-out: IC50 nM (hemolysis), red blood cells, Table A6) of 300000 nM, an IC50 [1] of 0.6 to 2 µM and an IC50 (HeLa cells [5]; read-out: IC50 nM (Toxicity)) of over 100000 nM. For the same compound, the IC50 (HeLa cells [5]; read-out: IC50 toxicity) was over 100000 nM, the “cytotoxicity compared with unmodified saponin” value (HeLa cells [5]) was “less cytotoxic” and the “CMC” value ([2]; SO saponins, determined in PBS, Table A7) was 50 ± 5 µM. For the same compound, the “CMC compared with native” value [2] was “lower CMC values”.

In the case of `CC(=O)OC1C(C)OC(OC2C(C)OC(OC(=O)[C@]34CCC(C)(C)CC3C3=CCC5[C@@]6(C)CC[C@H](OC7OC(C(=O)O)C(O)C(OC8OCC(O)C(O)C8O)C7OC7OC(CO)C(O)C(O)C7O)[C@@](C)(/C=N/NC(=O)CCCCCN7C(=O)C=CC7=O)C6CC[C@@]5(C)[C@]3(C)C[C@H]4O)C(OC3OC(C)C(OC4OCC(O)C(OC5OC(CO)C(O)C(O)C5O)C4O)C(O)C3O)C2O)C(O)C1OC1OCC(O)C(O)C1O` (stereo partly shown) [SO1861-Ald-EMCH], the “hemolytic activity compared with unmodified saponin” value (human red blood cells) is reported as “less hemolytically active”, the IC50 [1] is reported as 0.6 to 2 µM and the “cell killing activity of saponin alone” value [3] is reported as “no cell killing activity”. For the same compound, the “general toxicity in absence” value (HeLa (EGFR+) cells) was over 25.000 nM, the “Cell viability after 72 h” value (HeLa cells [4]) was “reduced cell viability” and the “cytotoxicity compared with unmodified saponin” value (HeLa cells [5]) was “less cytotoxic”. The “general toxicity in absence” value (A431 (EGFR++) cells) was over 25.000 nM, the “general toxicity in absence” value (A2058 (EGFR−) cells) was over 25.000 nM and the CMC ([2]; PBS (Tables A7, A9)) was over 800 µM. For the same compound, the “CMC compared with native” value [2] was “higher CMC values” and the “HSP27 gene silencing activity of saponin derivative alone” value (HSP27 mRNA in A431 cells) was “no HSP27 gene silencing activity”.

With “HSP27LNA: HSP27 LNA oligo 5′-ggcacagccagtggcg-3′ (GGCACAGCCAGTGGCG; LNA-modified, pattern not given here)” the “endosomal escape/gene silencing enhancement factor compared with HSP27BNA” value [6] was “comparable”.
